“And” between values parts separate entries of the source, which are not always exact repeats. Equal values may be shown once.
What was measured:
[1] = system: urinary podocytes; test: Podocyturia assay: urinary cells stained for podocin immunoreactivity; format: in vivo, human; settings: for Cells/HPF (urinary podocytes): 400 × high power field, individual cancer patients on anti-VEGF therapy, Table 1
Procedure: A random urine sample (25-50 mL each) was centrifuged for 8 minutes at 700 g at room temperature. The pellets were rinsed twice with […]. Next, the pellets were resuspended in Dulbecco's modified eagle's medium (DMEM) F-12 medium with 10% fetal bovine serum that was supplemented with antibiotics for the prevention of bacterial contamination. A one-milliliter aliquot was plated on a collagen-coated tissue culture slide, which was followed by overnight incubation at 37° C. in 5% CO2. The next day, the media were removed, followed by two phosphate-buffered saline solution washes. The slide was fixed with 1 mL of ice cold methanol for 10 minutes at −20° C. The slide was incubated with antibodies to podocin (dilution, 1:200). After being washed with phosphate-buffered saline solution, a secondary fluorescein isothiocyanate-labeled antibody was added at a dilution of 1:40 for 30 minutes. The sediment was counterstained with Hoechst nuclear stain to facilitate differentiation of whole cells from cell fragments. Coverslips were mounted with Vectashield (Vector Labs, Burlington, Calif.), and the slides were viewed with a fluorescence microscope (Leica, Germany). Nucleated, positive-staining cells were considered to be podocytes. A renal pathologist, who was blinded to the clinical diagnosis and laboratory findings, evaluated each sample to determine the number of cells that were present and the percentage of cells that were stained for podocin.

[2] = Proteinuria in patients on anti-VEGF therapy; format: in vivo, human
Procedure: The following was performed to determine whether podocyturia is present in patients who, while undergoing anti-VEGF therapy, develop proteinuria (Table 1). In addition, urinary podocyte excretion was compared among patients on anti-VEGF therapy with proteinuria ranging from 101 to 9720 mg/d (Table 1).

[3] = Renal function (creatinine, GFR) in patients on anti-VEGF therapy; settings: for GFR: individual cancer patients on anti-VEGF therapy, Table 1
[4] = system: renal cell carcinoma, clear cell type; test: Clinical course of a renal cell carcinoma patient on sunitinib therapy; format: in vivo, human; settings: person, four months into therapy
Description: They subsequently underwent a right radical nephrectomy and retroperitoneal lymphadenectomy.

Compound: CNC(=O)c1cc(Oc2ccc(NC(=O)Nc3ccc(Cl)c(C(F)(F)F)c3)cc2)ccn1 [S/nib, sorafenib]
- Cells/HPF (urinary podocytes) [1]: >9 Cells/HPF and 1 Cells/HPF
- Proteinuria ([2]; individual cancer patients on anti-VEGF therapy, Table 1): 9720 mg/day and 101 mg/day
- GFR [3]: 70 and 39

Compound: CCN(CC)CCNC(=O)c1c(C)[nH]c(/C=C2\C(=O)Nc3ccc(F)cc32)c1C [Sunitinib]
- Cells/HPF (urinary podocytes) [1]: >3 Cells/HPF
- presence of urinary podocytes ([1]; person, after seven months of therapy, FIG. 1): presence of urinary podocytes was confirmed
- Proteinuria ([2]; human, in vivo): 2112 mg/day
- predicted 24 hour protein ([2]; human, in vivo): 931 mg
- protein in 24 hours ([2]; human, in vivo): 467 mg
- Additional side effects [4]: hypertension, hand and foot syndrome, and drug-induced hypothyroidism
- kidney function, as per creatinine measurements ([3]; after the regimen was changed and the dose was decreased): improved
- GFR [3]: 43
- creatinine ([3]; person, after seven months of therapy): 1.3
- peak creatinine ([3]; person, four months into therapy): 1.5

Compound: bevacizumab
- Proteinuria (dipstick) ([2]; human, in vivo): 1 + dipstick
